Measured values: article PMC11145891, “Effect of 2-hydroxyethylammonium carboxylate protic ionic liquids on the solubility and cytotoxicity of indomethacin” (BMC Chemistry, 2024)
Read-outs that look alike come from different tables or passages of the source.

What was measured:
[1] = format: physicochemical
Method: Before obtaining dissolution data, a calibration curve for Indomethacin (IMC) was established (Fig. 2). A double-beam T80 UV-vis spectrometer (Japan) and a mixture of ethanol and distilled deionized water were employed to dissolve a specific amount of IMC to generate the calibration curve. Numerous methods were utilized to determine the experimental solubility data, encompassing the shake-flask method. […] Then, the excess amounts of IMC were added to glass vials holding a particular quantity of water and PILs, which were stirred and kept for 3 days in a water bath thermostat until equilibrium was reached. The temperature was adjusted with a precision of 0.01 K using an ED water bath thermostat (Julabo Co., Germany). After 3 days, the liquid and solid phases were separated employing a Hettich D-7200 centrifuge. At the next step, the liquid phase was appropriately diluted with an ethanol + water solution after filtering the saturated solutions through a 0.22 μm PTFE filter. The concentration of IMC in the solutions was measured by utilizing the calibration curve and a T80 UV-vis spectrometer (Japan). The mole fraction of IMC (x1) in the aqueous solutions containing PILs was determined, for the IMC + water, IMC + water combination, and IMC + PILs systems using the Eq. 1 [25, 26]:1 x1=[…]3, where Wi and Mi, respectively, indicate the weight fractions and molar mass weight fractions of each system component (i).

[2] = XRD of residual solids from solubility measurement; format: physicochemical; details: residual solids from saturated aqueous PIL solutions vs raw IMC
Source text: The XRD diffractograms of raw IMC crystals together with residuals crystals sampled from solubility measurement are depicted in Figure S4. (supporting information). It should be noted that quantitative analysis of phases in samples with preferential orientation or texture is not possible using traditional methods such as direct comparison. […] First, the stability of IMC in the presence of PILs was investigated. The analysis of the bottom phase(s) after the solubility experiments have been presented. There are different type of factors affecting the peak intensity of XRD. These type of factors are listed as: • The nature of the sample under test (single-phase or multiphase of the sample). • Powder samples have less peak intensity than bulk samples. (Due to the effect of absorption factor). • Grain size: the larger the grain size, the higher the peak intensity. For example, considering samples with the same chemical composition, which have been annealed at different times of heat treatment, a sample will have a higher peak intensity with a longer heat treatment time (longer annealing time = larger grain size). It should be noted that the smaller the grain size, the higher the […] is the amorphous part of the material, and as a result the background scatter in the diffraction pattern will increase and the peak intensity would decrease.

[3] = cited from earlier work
[4] = Apparent thermodynamic functions of IMC dissolution (van't Hoff and Gibbs equations); format: physicochemical
Source text: The van’t Hoff and Gibbs equations were employed for calculating the Thm = 305.55 K (the mean harmonic temperature), which was derived by considering into calculate temperatures (298.15 to 313.15 K). The thermodynamic parameters of dissolution have been evaluated by employing the apparent thermodynamic functions. […] On the other hand, the van’t Hoff plot, which is a plot of lnx1 versus 1/T-1/Thm , can be utilized to figure out:14 ΔHsoln∘=-R∂lnx1/∂1/T-1/ThmP, 15 ΔGsoln∘=-RThm×intercept.
In this manner, the values of ΔHsoln∘ and ΔGsoln∘ have been evaluated utilizing the slope and intercept of Eqs. 14 and 15. Furthermore, the following equation [47, 48] was applied to evaluate the standard molar entropy of dissolution, ΔSsoln∘ [49]:16 ΔSsoln∘=ΔHsoln∘-ΔGsoln∘/Thm.
Finally, in the IMC dissolution process, Eqs.

HT29 cell line [5] = test: MTT assay cytotoxicity of PILs; details: for IC50: MTT, 24 h exposure
Method: (§1) Pastor Institute of Iran generously provided the human colon adenocarcinoma cell line HT29. The cell lines were cultured in RPMI’s medium supplemented with 10% fetal bovine serum (FBS) and Culture medium containing FBS. The cell cultures were incubated at 37 °C in a humidified environment of 5% carbon dioxide—CO2.
(§2) The colorimetric MTT assay was used to assess the cytotoxic activity of PILs (Twentyman and Luscombe 1987). HT29 cells were seeded in 96-well plates and allowed to conform for the first step. The cells were then incubated for 24 h at 37 °C in 5% CO2 in a total of six concentrations (3–150 µg mL^−1) of the studied compounds diluted in RPMI medium (previously sterilized with a 0.22 m syringe filter). After 24 h of exposure, each well was filled with 50 µL of MTT solution (3 (4,5-dimethylthiazol-2-yl)-2,5-diphenyltetrazolium bromide (MTT) from Sigma-Aldrich) (2 mg. mL in PBS, pH 7.2). To dissolve the formazan crystals, the medium was substituted with 150 µL of dimethyl sulfoxide (DMSO) after 4 h of incubation.
(§3) The plate was shaking for around 1 h while being held out of direct sunlight. Cell viability was measured through the optical density of reduced MTT at 570–630 nm using a microplate reader (Synergy HT from BioTeK Instruments Inc., Winooski, VT, USA). The percentage of viable cells was calculated as the ratio between the absorbance of treated and control cells. Similarly, IC50 was estimated using a non-linear regression, logistic equation to determine the chemical concentration that causes a 50% reduction in cell viability [27].

HT29 cell line [6] = test system: HT29 cell line
Method: as §1, §2, §3

[7] = aq. MEAA, w3 = 0.0000, Thm = 305.55 K
[8] = aq. MEAA, w3 = 0.0200, Thm = 305.55 K
[9] = aq. MEAA, w3 = 0.0500, Thm = 305.55 K
[10] = aq. MEAA, w3 = 0.0700, Thm = 305.55 K
[11] = aq. MEAA, w3 = 0.1000, Thm = 305.55 K
[12] = aq. MEAA, w3 = 0.1500, Thm = 305.55 K
[13] = aq. MEAA, w3 = 0.2000, Thm = 305.55 K
[14] = aq. MEAL, w3 = 0.0000, Thm = 305.55 K
[15] = aq. MEAL, w3 = 0.0200, Thm = 305.55 K
[16] = aq. MEAL, w3 = 0.0500, Thm = 305.55 K
[17] = aq. MEAL, w3 = 0.0700, Thm = 305.55 K
[18] = aq. MEAL, w3 = 0.1000, Thm = 305.55 K
[19] = aq. MEAL, w3 = 0.1500, Thm = 305.55 K
[20] = aq. MEAL, w3 = 0.2000, Thm = 305.55 K
[21] = aq. MEAP, w3 = 0.0000, Thm = 305.55 K
[22] = aq. MEAP, w3 = 0.0200, Thm = 305.55 K
[23] = aq. MEAP, w3 = 0.0500, Thm = 305.55 K
[24] = aq. MEAP, w3 = 0.0700, Thm = 305.55 K
[25] = aq. MEAP, w3 = 0.1000, Thm = 305.55 K
[26] = aq. MEAP, w3 = 0.1500, Thm = 305.55 K
[27] = aq. MEAP, w3 = 0.2000, Thm = 305.55 K

COc1ccc2c(c1)c(CC(=O)O)c(C)n2C(=O)c1ccc(Cl)cc1 [Indomethacin]
IMC solubility in MEAL PIL relative to water [1]: more than 200 times | increase of IMC solubility in PILs compared to pure water [1]: ~200 times | solubility (mole fraction) [1]: 20.71 × 10^−5 mole fraction | solid phase stability in solubility measurements (XRD) [2]: no phase transformation | solubility (mole fraction) ([3]; ethanol/water (wETOH = 0.2), 298.15 K, ref Peña et al.): 1.13 × 10^−5 mole fraction | solubility (mole fraction) ([3]; propylene glycol/water, 0.4 weight fraction propylene glycol, 303.15 K, ref Holguín et al. 52): 7.61 × 10^–6 mole fraction | ΔGsoln∘ [4, 7]: 8.265 kcal/mol | ΔHsoln∘ [4, 7]: 6.052 kcal/mol | ξH [4, 7]: 73.23% | ξTS [4, 7]: 26.77% | ΔGsoln∘ [4, 8]: 6.804 kcal/mol | ΔHsoln∘ [4, 8]: 4.345 kcal/mol | ξH [4, 8]: 63.86% | ξTS [4, 8]: 36.14% | ΔGsoln∘ [4, 9]: 6.671 kcal/mol | ΔHsoln∘ [4, 9]: 3.662 kcal/mol | ξH [4, 9]: 54.90% | ξTS [4, 9]: 45.10% | ΔGsoln∘ [4, 10]: 6.604 kcal/mol | ΔHsoln∘ [4, 10]: 2.13 kcal/mol | ξH [4, 10]: 32.21% | ξTS [4, 10]: 67.79% | ΔGsoln∘ [4, 11]: 6.561 kcal/mol | ΔHsoln∘ [4, 11]: 2.55 kcal/mol | ξH [4, 11]: 38.86% | ξTS [4, 11]: 61.14% | ΔGsoln∘ [4, 12]: 6.422 kcal/mol | ΔHsoln∘ [4, 12]: 4.572 kcal/mol | ξH [4, 12]: 71.17% | ξTS [4, 12]: 28.83% | ΔGsoln∘ [4, 13]: 6.255 kcal/mol | ΔHsoln∘ [4, 13]: 2.536 kcal/mol | ξH [4, 13]: 40.54% | ξTS [4, 13]: 59.46% | ΔGsoln∘ [4, 14]: 8.265 kcal/mol | ΔHsoln∘ [4, 14]: 6.052 kcal/mol | ξH [4, 14]: 73.23% | ξTS [4, 14]: 26.77% | ΔGsoln∘ [4, 15]: 6.028 kcal/mol | ΔHsoln∘ [4, 15]: 5.282 kcal/mol | ξH [4, 15]: 87.61% | ξTS [4, 15]: 12.39% | TMΔSsoln∘ [4, 16]: 0.598 kcal/mol | ΔGsoln∘ [4, 16]: 5.746 kcal/mol | ΔHsoln∘ [4, 16]: 6.343 kcal/mol | ξH [4, 16]: 91.39% | ξTS [4, 16]: 8.61% | TMΔSsoln∘ [4, 17]: 2.457 kcal/mol | ΔGsoln∘ [4, 17]: 5.633 kcal/mol | ΔHsoln∘ [4, 17]: 8.09 kcal/mol | ξH [4, 17]: 76.70% | ξTS [4, 17]: 23.30% | TMΔSsoln∘ [4, 18]: 0.911 kcal/mol | ΔGsoln∘ [4, 18]: 5.471 kcal/mol | ΔHsoln∘ [4, 18]: 6.381 kcal/mol | ξH [4, 18]: 87.50% | ξTS [4, 18]: 12.50% | TMΔSsoln∘ [4, 19]: 2 kcal/mol | ΔGsoln∘ [4, 19]: 5.208 kcal/mol | ΔHsoln∘ [4, 19]: 7.206 kcal/mol | ξH [4, 19]: 78.28% | ξTS [4, 19]: 21.72% | TMΔSsoln∘ [4, 20]: 0.614 kcal/mol | ΔGsoln∘ [4, 20]: 5.036 kcal/mol | ΔHsoln∘ [4, 20]: 5.652 kcal/mol | ξH [4, 20]: 90.18% | ξTS [4, 20]: 9.82% | ΔGsoln∘ [4, 21]: 8.265 kcal/mol | ΔHsoln∘ [4, 21]: 6.052 kcal/mol | ξH [4, 21]: 73.23% | ξTS [4, 21]: 26.77% | TMΔSsoln∘ [4, 22]: 0.75 kcal/mol | ΔGsoln∘ [4, 22]: 6.965 kcal/mol | ΔHsoln∘ [4, 22]: 7.715 kcal/mol | ξH [4, 22]: 91.14% | ξTS [4, 22]: 8.86% | TMΔSsoln∘ [4, 23]: 1.91 kcal/mol | ΔGsoln∘ [4, 23]: 6.74 kcal/mol | ΔHsoln∘ [4, 23]: 8.65 kcal/mol | ξH [4, 23]: 81.92% | ξTS [4, 23]: 18.08% | TMΔSsoln∘ [4, 24]: 7.481 kcal/mol | ΔGsoln∘ [4, 24]: 6.616 kcal/mol | ΔHsoln∘ [4, 24]: 14.1 kcal/mol | ξH [4, 24]: 65.33% | ξTS [4, 24]: 34.67% | TMΔSsoln∘ [4, 25]: 11.89 kcal/mol | ΔGsoln∘ [4, 25]: 6.456 kcal/mol | ΔHsoln∘ [4, 25]: 18.34 kcal/mol | ξH [4, 25]: 60.68% | ξTS [4, 25]: 39.32% | TMΔSsoln∘ [4, 26]: 14.01 kcal/mol | ΔGsoln∘ [4, 26]: 6.066 kcal/mol | ΔHsoln∘ [4, 26]: 20.07 kcal/mol | ξH [4, 26]: 58.90% | ξTS [4, 26]: 41.10% | TMΔSsoln∘ [4, 27]: 9.183 kcal/mol | ΔGsoln∘ [4, 27]: 5.786 kcal/mol | ΔHsoln∘ [4, 27]: 14.97 kcal/mol | ξH [4, 27]: 61.98% | ξTS [4, 27]: 38.02%

CC(=O)O.NCCO [MEAA, 2-Hydroxyethylammonium acetate]
IC50 (HT29 cell line [5]): 26.40 ± 0.006 µg/mL | cytotoxic effect category (HT29 cell line [6]): moderate

CC(O)C(=O)O.NCCO (centres unmarked) [MEAL, 2-Hydroxyethylammonium lactate]
IC50 (HT29 cell line [5]): 79.23 ± 0.001 µg/mL | cytotoxic effect category (HT29 cell line [6]): moderate

CCC(=O)O.NCCO [MEAP, 2-Hydroxyethylammonium propionate]
cytotoxic effect category (HT29 cell line [5]): moderate | IC50 (HT29 cell line [5]): 67.19 ± 0.049 µg/mL
